Measurements taken from patent US20100210649A1, “PYRIDAZINONES AND FURAN-CONTAINING COMPOUNDS” (Sloan-Kettering Institute for Cancer Research, priority 2006, published 2010).
Where two headings read alike, the source gives them in different places.

What was measured:
H358 = assay: Non Small Cell Lung Cancer proliferation assay (Alamar Blue reduction), H358; format: cell-based; conditions: Homo sapiens, NCI-H358
In short: (§1)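 Proliferation after 48 h compound exposure (1% DMSO final, 37 °C) was read by Alamar Blue reduction over an additional 48 h, fluorescence at 530 nm excitation/590 nm emission. Dose-response runs seeded 250 cells/well; DMSO-only wells as high control.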

H2030 = assay: Non Small Cell Lung Cancer proliferation assay (Alamar Blue reduction), H2030; format: cell-based, human; conditions: Homo sapiens
In short: as §1

H820 = assay: Dose response study (Alamar Blue), H820; format: cell-based; conditions: Homo sapiens, NCI-H820; H820; 12 point doubling dilution 10 uM to 5 nM; 48 h treatment, alamar blue additional 48 h; read-out: IC50 H820
H3255 = assay: Non Small Cell Lung Cancer proliferation assay (Alamar Blue reduction), H3255; format: cell-based, human; conditions: Homo sapiens
In short: as §1

A549 = assay: Dose response study (Alamar Blue), A549; format: cell-based; conditions: Homo sapiens; A549; 12 point doubling dilution 10 uM to 5 nM; 48 h treatment, alamar blue additional 48 h; read-out: IC50 A549
H1975 = assay: Non Small Cell Lung Cancer proliferation assay (Alamar Blue reduction), H1975; format: cell-based, human; conditions: Homo sapiens
In short: as §1

H1650 = assay: Non Small Cell Lung Cancer proliferation assay (Alamar Blue reduction), H1650; format: cell-based, human; conditions: Homo sapiens
In short: as §1

H2122 = assay: Dose response study (Alamar Blue), H2122; format: cell-based; conditions: Homo sapiens, NCI-H2122; H2122; 12 point doubling dilution 10 uM to 5 nM; 48 h treatment, alamar blue additional 48 h; read-out: IC50 H2122
in vitro = conditions: human
PC9 = assay: Dose response study (Alamar Blue), PC9; format: cell-based; conditions: Homo sapiens, PC-9; PC9; 12 point doubling dilution 10 uM to 5 nM; 48 h treatment, alamar blue additional 48 h; read-out: IC50 PC9
[1] = tested on: HPL1D (human peripheral lung epithelial) cell line; assay: Cell proliferation / dose response (Alamar Blue), HPL1D; format: cell-based; conditions: HPL1D, 12 point doubling dilution 10 uM to 5 nM, 48 h treatment, alamar blue additional 48 h, read-out: IC50 HPL1D
In short: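 Dose–response proliferation was run in HPL1D human peripheral lung epithelial cells. Compound treatment lasted 48 h at 37 C, followed by alamar blue for a further 48 h. Alamar blue reduction was the read-out.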

[2] = H358, 12 point doubling dilution 10 uM to 5 nM, 48 h treatment, alamar blue additional 48 h, read-out: IC50 H358
[3] = read-out: Dose Response (uM) H358
[4] = NCI-H2030, 48 h, H2030, 12 point doubling dilution 10 uM to 5 nM, 48 h treatment, alamar blue additional 48 h, read-out: IC50 H2030
[5] = NCI-H2030, dose response 10 M to 5 nM, IC50, read-out: Dose Response (uM) H2030
[6] = NCI-H3255, 48 h, H3255, 12 point doubling dilution 10 uM to 5 nM, 48 h treatment, alamar blue additional 48 h, read-out: IC50 H3255
[7] = NCI-H1975, 48 h, H1975, 12 point doubling dilution 10 uM to 5 nM, 48 h treatment, alamar blue additional 48 h, read-out: IC50 H1975
[8] = NCI-H1975, dose response 10 M to 5 nM, IC50, read-out: Dose Response (uM) H1975
[9] = NCI-H1650, 48 h, H1650, 12 point doubling dilution 10 uM to 5 nM, 48 h treatment, alamar blue additional 48 h, read-out: IC50 H1650
[10] = NCI-H1650, dose response 10 M to 5 nM, IC50, read-out: Dose Response (uM) H1650
[11] = NCI-H3255, dose response 10 M to 5 nM, IC50, read-out: Dose Response (uM) H3255

Structure (SMILES)	IC50 (H358; [2]) [µM]	IC50 (H358; [3]) [µM]	IC50 (H2030; [4]) [µM]	IC50 (H2030; [5]) [µM]	IC50 (H820) [µM]	IC50 (H3255; [6]) [µM]	IC50 (A549) [µM]	IC50 (H1975; [7]) [µM]	IC50 (H1975; [8]) [µM]	IC50 (H1650; [9]) [µM]	IC50 (H1650; [10]) [µM]	IC50 (H2122) [µM]	IC50 at 72 h (in vitro; CytoTox (uM) NHBE) [µM]	IC50 at 72 h (in vitro; CytoTox (uM) WI-38) [µM]	IC50 (PC9) [µM]	IC50 [1] [µM]	IC50 (H3255; [11]) [µM]
O=c1c(Cl)c(Cl)cnn1-c1ccc(Cl)cc1Cl [compound 267077]	3.22	0.14	3.55	1.27	2.68	8.75	> 10	2.08	0.05	> 10	0.56	> 10	1.1	1.74	> 10	4.95	
COc1cccc(-n2ncc(Br)c(Br)c2=O)c1 [compound 267083]	0.3	0.13	0.26	0.57	0.2	0.65	1.07	0.24	0.23	1.08	1.06	1.15	1.85	2.6	0.74	0.22	0.35
COCCOc1cccc(-n2ncc(Br)c(Br)c2=O)c1 [compound 267084]	0.27	0.13	0.22	0.61	0.18	0.71	0.84	0.21	0.23	1.04	1.51	1.12	2.56	2.33	0.68	0.18	0.38
Cc1cccc(-n2ncc(I)c(I)c2=O)c1 [compound 267085]	1.33	0.3	0.81	0.99	0.41	2.13	3.27	0.8	0.5	3.16	1.93	2.34	2.88	5.51	2.24	0.68	0.71
O=c1c(Cl)c(Cl)cnn1-c1ccccn1 [compound 267090]	0.21	0.06	0.17	0.41	0.14	0.7	0.54	0.16	0.2	1.42	1.29	0.89	1.43	1.19	0.47	0.17	0.5
NCCCOc1cccc(-n2ncc(Br)c(Br)c2=O)c1 [compound 273634]	0.69	0.24	0.47	0.67	0.29	0.99	1.65	0.41	0.44	0.51	1.36	1.42	2.94	4.53	0.97	0.35	1.11
